Measurements reported in the NIST ThermoML archive (doi:10.1016/j.jct.2016.11.024).
Numbers after ± are expanded uncertainties.

Settings: Liquid, Ebulliometric method (Recirculating still)

vapor or sublimation pressure (389.1 K) [kPa] | vapor or sublimation pressure (412.93 K) [kPa] | vapor or sublimation pressure (424.43 K) [kPa] | vapor or sublimation pressure (356.53 K) [kPa] | vapor or sublimation pressure (380.5 K) [kPa] | vapor or sublimation pressure (391.77 K) [kPa] | SMILES
2 ± 0.2 | 6 ± 0.61 | 10 ± 1 | – | – | – | CCCCCCCCCC(=O)OC [methyl decanoate]
– | – | – | 2 ± 0.2 | 6 ± 0.61 | 10 ± 1 | CCCCCCCC(=O)OC [methyl octanoate]
